Data: patent US10472336B2, “Modulators of indoleamine 2,3-dioxygenase” (GlaxoSmithKline Intellectual Property (No.2) Limited, priority 2015, dated 2019)
Structures can show the parent of a compound that is named as a salt.

Columns and labels:
[1] = molecular target: T1, indoleamine 2, 3-dioxygenase (IDO1) (Homo sapiens, UniProt P14902); assay: PBMC IDOi assay (kynurenine detection by mass spectrometry); type: cell-based; conditions: IFN-γ and LPS stimulated human PBMC, 2 days
Protocol: (§1) Compounds of the present invention were tested via high-throughput cellular assays utilizing detection of kynurenine via mass spectrometry and cytotoxicity as end-points. For the mass spectrometry and cytotoxicity assays, human peripheral blood mononuclear cells (PBMC) (PB003F; AllCells®, Alameda, Calif.) were stimulated with human interferon-γ (IFN-γ) (Sigma-Aldrich Corporation, St. Louis, Mo.) and lipopolysaccharide from Salmonella minnesota (LPS) (Invivogen, San Diego, Calif.) to induce the expression of indoleamine 2, 3-dioxygenase (IDO1). Compounds with IDO1 inhibitory properties decreased the amount of kynurenine produced by the cells via the tryptophan catabolic pathway. Cellular toxicity due to the effect of compound treatment was measured using CellTiter-Glo® reagent (CTG) (Promega Corporation, Madison, Wis.), which is based on luminescent detection of ATP, an indicator of metabolically active cells.
(§2) In preparation for the assays, test compounds were serially diluted 3-fold in DMSO from a typical top concentration of 5 mM and plated at 0.5 μL in 384-well, polystyrene, clear bottom, tissue culture treated plates with lids (Greiner Bio-One, Kremsmünster, Austria) to generate 11-point dose response curves. Low control wells (0% kynurenine or 100% cytotoxicity) contained either 0.5 μL of DMSO in the presence of unstimulated (−IFN-γ/−LPS) PBMCs for the mass spectrometry assay or 0.5 μL of DMSO in the absence of cells for the cytotoxicity assay, and high control wells (100% kynurenine or 0% cytotoxicity) contained 0.5 μL of DMSO in the presence of stimulated (+IFN-γ/+LPS) PBMCs for both the mass spectrometry and cytotoxicity assays.
Frozen stocks of PBMCs were washed and recovered in RPMI 1640 medium (Thermo Fisher Scientific, Inc., Waltham, Mass.) supplemented with 10% v/v heat-inactivated fetal bovine serum (FBS) (Thermo Fisher Scientific, Inc., Waltham, Mass.), and 1× penicillin-streptomycin antibiotic solution (Thermo Fisher Scientific, Inc., Waltham, Mass.). The cells were diluted to 1,000,000 cells/mL in the supplemented RPMI 1640 medium. 50 μL of either the cell suspension, for the mass spectrometry assay, or medium alone, for the cytotoxicity assay, were added to the low control wells, on the previously prepared 384-well compound plates, resulting in 50,000 cells/well or 0 cells/well respectively. IFN-γ and LPS were added to the remaining cell suspension at final concentrations of 100 ng/ml and 50 ng/ml respectively, and 50 μL of the stimulated cells were added to all remaining wells on the 384-well compound plates. The plates, with lids, were then placed in a 37° C., 5% CO2 humidified incubator for 2 days.
(§3) Following incubation, the 384-well plates were removed from the incubator and allowed to equilibrate to room temperature for 30 minutes. For the cytotoxicity assay, CellTiter-Glo® was prepared according to the manufacturer's instructions, and 40 μL were added to each plate well. After a twenty minute incubation at room temperature, luminescence was read on an EnVision® Multilabel Reader (PerkinElmer Inc., Waltham, Mass.). For the mass spectrometry assay, 10 μL of supernatant from each well of the compound-treated plates were added to 40 μL of acetonitrile, containing 10 μM of an internal standard for normalization, in 384-well, polypropylene, V-bottom plates (Greiner Bio-One, Kremsmünster, Austria) to extract the organic analytes. Following centrifugation at 2000 rpm for 10 minutes, 10 μL from each well of the acetonitrile extraction plates were added to 90 μL of sterile, distilled H2O in 384-well, polypropylene, V-bottom plates for analysis of kynurenine and the internal standard on the RapidFire 300 (Agilent Technologies, Santa Clara, Calif.) and 4000 QTRAP MS (SCIEX, Framingham, Mass.). MS data were integrated using Agilent Technologies' RapidFire Integrator software, and data were normalized for analysis as a ratio of kynurenine to the internal standard. […]

[2] = molecular target: T1, indoleamine 2, 3-dioxygenase (IDO1); assay: HeLa IDOi assay (kynurenine detection by mass spectrometry); type: cell-based; set-up: human epithelial HeLa cells (CCL-2; host or cells: HeLa cells stimulated with human IFN-γ; conditions: IFN-γ stimulated human epithelial HeLa cells, 2 days
Protocol: as §1, with “epithelial HeLa” for “peripheral blood mononuclear”, “(CCL-2; ATCC®, Manassas, Va.)” for “(PBMC) (PB003F; AllCells®, Alameda, Calif.)”, “Mo.)” for “Mo.) and lipopolysaccharide from Salmonella minnesota (LPS) (Invivogen, San Diego, Calif.)”
as §2, with “(−IFN-γ) HeLa cells” for “(−IFN-γ/−LPS) PBMCs”, “(+IFN-γ) HeLa cells” for “(+IFN-γ/+LPS) PBMCs”
Frozen stocks of HeLa cells were washed and recovered in DMEM high glucose medium with HEPES (Thermo Fisher Scientific, Inc., Waltham, Mass.) supplemented with 10% v/v certified fetal bovine serum (FBS) (Thermo Fisher Scientific, Inc., Waltham, Mass.), and 1× penicillin-streptomycin antibiotic solution (Thermo Fisher Scientific, Inc., Waltham, Mass.). The cells were diluted to 100,000 cells/mL in the supplemented DMEM medium. 50 μL of either the cell suspension, for the mass spectrometry assay, or medium alone, for the cytotoxicity assay, were added to the low control wells, on the previously prepared 384-well compound plates, resulting in 5,000 cells/well or 0 cells/well respectively. IFN-γ was added to the remaining cell suspension at a final concentration of 10 nM, and 50 μL of the stimulated cells were added to all remaining wells on the 384-well compound plates. The plates, with lids, were then placed in a 37° C., 5% CO2 humidified incubator for 2 days.
as §3, with “instructions, and 10 μL were” for “instructions, and 40 μL were”

T1 sequence (P14902 whole entry): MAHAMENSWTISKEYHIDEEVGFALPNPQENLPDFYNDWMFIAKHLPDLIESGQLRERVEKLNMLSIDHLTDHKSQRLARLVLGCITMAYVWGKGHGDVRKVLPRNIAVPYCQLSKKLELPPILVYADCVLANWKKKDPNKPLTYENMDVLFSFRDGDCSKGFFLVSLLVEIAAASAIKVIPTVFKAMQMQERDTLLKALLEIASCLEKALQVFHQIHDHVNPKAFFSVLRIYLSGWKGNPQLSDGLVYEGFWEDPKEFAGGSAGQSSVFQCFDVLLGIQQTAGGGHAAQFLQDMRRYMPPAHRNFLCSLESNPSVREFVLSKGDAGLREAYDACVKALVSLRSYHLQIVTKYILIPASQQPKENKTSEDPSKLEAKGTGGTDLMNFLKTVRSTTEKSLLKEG

In the case of `CC(C)CN(CC(C)C)c1ccc(C(C)CC(=O)O)cc1Nc1nc(Cl)ns1` (centres unmarked) [Example 25, 3-(3-((3-chloro-1,2,4-thiadiazol-5-yl)amino)-4-(diisobutylamino)phenyl)butanoic acid], the EC50 [1] is reported as 25.1 nM and the EC50 [2] is reported as 31.6 nM.

In the case of `CC(C)CN(c1ccc(C(C)CC(=O)O)cc1Nc1nnc(C(F)(F)F)s1)C1CCCCC1` (centres unmarked) [Example 29, 3-(4-(cyclohexyl(isobutyl)amino)-3-((5-(trifluoromethyl)-1,3,4-thiadiazol-2-yl)amino)phenyl)butanoic acid], the EC50 [1] is reported as 0.316 nM and the EC50 [2] is reported as 3.16 nM.

`CC(C)CN(CC(C)C)c1ccc(C(C)CC(=O)O)cc1Nc1nc(C(F)(F)F)ns1` (centres unmarked) [Example 34, 3-(4-(diisobutylamino)-3-((3-(trifluoromethyl)-1,2,4-thiadiazol-5-yl)amino)phenyl)butanoic acid] gave an EC50 [1] of 5.01 nM and an EC50 [2] of 3.98 nM.

Compound `CC(C)CN(c1ccc([C@@H](C)CC(=O)O)cc1Nc1nc(C(F)(F)F)ns1)C1CCCCC1` [Example 37, (S)-3-(4-(cyclohexyl(isobutyl)amino)-3-((3-(trifluoromethyl)-1,2,4-thiadiazol-5-yl)amino)phenyl)butanoic acid] has an EC50 [1] of 1 nM and an EC50 [2] of 2 nM.

Compound `CC(C)CN(c1ccc([C@H](C)CC(=O)O)cc1Nc1nc(C(F)(F)F)ns1)C1CCCCC1` [Example 38, (R)-3-(4-(cyclohexyl(isobutyl)amino)-3-((3-(trifluoromethyl)-1,2,4-thiadiazol-5-yl)amino)phenyl)butanoic acid] has an EC50 [1] of 1 nM and an EC50 [2] of 3.98 nM.

Work on `CC(C)CN(c1ccc([C@@H](C)CC(=O)O)cc1Nc1nc(Cl)ns1)C1CCCCC1` [Example 39, (S)-3-(3-((3-chloro-1,2,4-thiadiazol-5-yl)amino)-4-(cyclohexyl(isobutyl)amino)phenyl)butanoic acid] yielded an EC50 [1] of 1.26 nM and an EC50 [2] of 12.6 nM.

Work on `CC(C)CN(c1ccc([C@H](C)CC(=O)O)cc1Nc1nc(Cl)ns1)C1CCCCC1` [Example 40, (R)-3-(3-((3-chloro-1,2,4-thiadiazol-5-yl)amino)-4-(cyclohexyl(isobutyl)amino)phenyl)butanoic acid] yielded an EC50 [1] of 0.631 nM and an EC50 [2] of 6.31 nM.

With `CC(C)CN(CC(C)C)c1ccc([C@@H](C)CC(=O)O)cc1Nc1nc(Cl)ns1` [Example 41, (S)-3-(3-((3-chloro-1,2,4-thiadiazol-5-yl)amino)-4-(diisobutylamino)phenyl)butanoic acid] the EC50 [1] was 10 nM and the EC50 [2] was 63.1 nM.

Compound `CC(C)CN(CC(C)C)c1ccc([C@H](C)CC(=O)O)cc1Nc1nc(Cl)ns1` [Example 42, (R)-3-(3-((3-chloro-1,2,4-thiadiazol-5-yl)amino)-4-(diisobutylamino)phenyl)butanoic acid] has an EC50 [1] of 7.94 nM and an EC50 [2] of 39.8 nM.

`Cc1nnc(Nc2cc(C(C)CC(=O)O)ccc2N(CC(C)C)CC(C)C)[nH]1` (centres unmarked) [Example 47, 3-(4-(diisobutylamino)-3-((5-methyl-4H-1,2,4-triazol-3-yl)amino)phenyl)butanoic acid] showed an EC50 [1] of 200 nM and an EC50 [2] of 158 nM.

With `CC(C)CN(CC(C)C)c1ccc(C(C)CC(=O)O)cc1Nc1nnc(C2CC2)[nH]1` (centres unmarked) [Example 48, 3-(3-((5-cyclopropyl-4H-1,2,4-triazol-3-yl)amino)-4-(diisobutylamino)phenyl)butanoic acid] the EC50 [1] was 25.1 nM and the EC50 [2] was 63.1 nM.

`CC(C)CN(c1ccc([C@H](C)CC(=O)O)cc1Nc1nc(C(F)(F)F)cs1)C1CCCCC1` [Example 49, (R)-3-(4-(cyclohexyl(isobutyl)amino)-3-((4-(trifluoromethyl)thiazol-2-yl)amino)phenyl)butanoic acid] showed an EC50 [1] of 0.794 nM and an EC50 [2] of 3.16 nM.

`CC(C)CN(c1ccc([C@H](C)CC(=O)O)cc1Nc1nnc(C2CC2)[nH]1)C1CCCCC1` [Example 50, (R)-3-(4-(cyclohexyl(isobutyl)amino)-3-((5-cyclopropyl-4H-1,2,4-triazol-3-yl)amino)phenyl)butanoic acid] was tested, and the EC50 [1] was 2.51 nM and the EC50 [2] was 10 nM.

With `CC(C)CN(CC(C)C)c1ccc([C@@H](C)CC(=O)O)cc1Nc1nc(C(F)(F)F)ns1` [Example 53, (S)-3-(4-(diisobutylamino)-3-((3-(trifluoromethyl)-1,2,4-thiadiazol-5-yl)amino)phenyl)butanoic acid] the EC50 [1] was 3.16 nM and the EC50 [2] was 10 nM.

`CC(C)CN(CC(C)C)c1ccc([C@H](C)CC(=O)O)cc1Nc1nc(C(F)(F)F)ns1` [Example 54, (R)-3-(4-(diisobutylamino)-3-((3-(trifluoromethyl)-1,2,4-thiadiazol-5-yl)amino)phenyl)butanoic acid] showed an EC50 [1] of 2 nM and an EC50 [2] of 6.31 nM.

In the case of `CC(C)CN(CC(C)C)c1ccc(C(C)CC(=O)O)cc1Nc1nnc(C(F)(F)F)s1` (centres unmarked) [Example 55, 3-(4-(diisobutylamino)-3-((5-(trifluoromethyl)-1,3,4-thiadiazol-2-yl)amino)phenyl)butanoic acid, 2,2,2-trifluoroacetic acid salt], the EC50 [1] is reported as 0.631 nM and the EC50 [2] is reported as 3.16 nM.
